In ChEMBL document CHEMBL1150922, “A new photosystem II electron transfer inhibitor from Sorghum bicolor” (J Nat Prod, 1998) one finds IC50 and Activity data, which are given here for 4 compounds.

pIC50: −log10 of the molar value. Active and inactive are the calls of the source. No cut-off for these calls is given here.

Test [1] is described as follows: Inhibition of photosystem 2 in spinach thylakoid membranes assessed as oxygen evolution. The class given is cell membranes, Spinacia oleracea. The following applies: read-out: I50.
Test [2] concerns Lactuca sativa. Kind of test: Phytotoxicity against lettuce seedlings assessed as inhibition of seed germination at 0.1 mM after 4 days. The class given is functional, organism-based.
Test [3] concerns Lactuca sativa. The experiment in a line: Phytotoxicity against lettuce seedlings assessed as inhibition of seed germination at >0.3 mM after 4 days. The class given is functional, organism-based.
Another test has as its system Spinacia oleracea. The experiment in a line: Reduction in light-induced chlorophyll fluorescence half-life in spinach thylakoids membrane at 0.3 to 1 uM. The class given is functional, cell membranes.

Turning to `C=CC/C=C\C/C=C\CCCCCCCC1=C(OC)C(=O)C=C(OC)C1=O`, in test [1], the pIC50 is 6.55. The outcome with Lactuca sativa [2] was inactive. Moreover, the result in the test with Lactuca sativa [3] and in the test on Spinacia oleracea was Active.

Turning to `C=CC/C=C\C/C=C\CCCCCCCC1=C(O)C(=O)C=C(OCC)C1=O`, the pIC50 in test [1] was 5.97. In addition, the result in the test with Lactuca sativa [2] was inactive. Further, the outcome with Lactuca sativa [3] and with Spinacia oleracea was Active.

In the case of `CCNc1nc(Cl)nc(NC(C)C)n1` [ATRAZINE], in test [1], the pIC50 is 6.03. Besides, the outcome in the test on Lactuca sativa [2] was inactive. Besides, the result in the test with Lactuca sativa [3] and with Spinacia oleracea was Active.

As to `C=CC/C=C\C/C=C\CCCCCCCC1=C(O)C(=O)C=C(OC)C1=O` [SORGOLEONE], the pIC50 in test [1] is 7.00. In addition, the result in the test on Lactuca sativa [2] was inactive. The result in the test with Lactuca sativa [3] and in the test with Spinacia oleracea was Active.
